Laboratory results: EPA's ToxRefDB 2

Tests used:
rat [1] = conditions: Combined chronic toxicity/carcinogenicity, fischer, Oral, Gavage/Intubation, dose end: 103 week, group: systemic
mouse [2] = conditions: Combined chronic toxicity/carcinogenicity, b6c3f1, Oral, Gavage/Intubation, dose end: 103 week, group: systemic
rat [3] = conditions: Peri- and post-natal toxicity study (Segment III), sprague dawley, Oral, Gavage/Intubation, dose end: 40 PND
rat [4] = conditions: Prenatal developmental toxicity study; sprague dawley; Oral; Gavage/Intubation; dose end: 19 GD; group: maternal; systemic / in life observation / body weight / body weight gain + systemic / in life observation / food consumption / food consumption + …
rat [5] = conditions: Chronic toxicity, Sprague-Dawley, Oral, Feed, dose end: 104 week, group: systemic
mouse [6] = conditions: Combined chronic toxicity/carcinogenicity, other, Oral, Feed, dose end: 91 week, group: systemic
rat [7] = conditions: Combined chronic toxicity/carcinogenicity, sprague dawley, Oral, Feed, dose end: 24 month, group: systemic
dog [8] = conditions: Subchronic oral toxicity in nonrodent, beagle, Feed, dose end: 26 week, group: systemic, systemic / in life observation / clinical signs / chewing of extremities + systemic / in life observation / clinical signs / muscle …
mouse [9] = conditions: Carcinogenicity, b6c3f1, Oral, Feed, dose end: 104 week, group: systemic
rabbit [10] = conditions: Prenatal developmental toxicity study, new zealand white, Oral, Gavage/Intubation, dose end: 18 GD
rat [11] = conditions: Multigenerational reproductive toxicity study, sprague dawley, Oral, Feed, dose end: 2 generation
dog [12] = conditions: Chronic toxicity, beagle, Oral, Capsule, dose end: 28 day, group: systemic
rabbit [13] = conditions: Prenatal developmental toxicity study, new zealand white, Oral, Gavage/Intubation, dose end: 28 GD
dog [14] = conditions: Chronic toxicity; beagle; Oral; Capsule; dose end: 12 month; group: systemic; systemic / in life observation / body weight / body weight gain + systemic / clinical chemistry / albumin / albumin + systemic / clinical …
rat [15] = conditions: Chronic toxicity, fischer, Oral, Feed, dose end: 24 month, group: systemic
mouse [16] = conditions: Carcinogenicity, cd1, Oral, Feed, dose end: 113 week, group: systemic
rabbit [17] = conditions: Prenatal developmental toxicity study, new zealand white, Oral, Gavage/Intubation, dose end: 19 GD
rat [18] = conditions: Combined chronic toxicity/carcinogenicity, sprague dawley, Oral, Feed, dose end: 104 week, group: systemic
rat [19] = conditions: Prenatal developmental toxicity study, sprague dawley, Oral, Gavage/Intubation, dose end: 19 GD
[20] = systemic / in life observation / body weight / body weight
[21] = systemic / pathology microscopic / blood / leukemia mononuclear + systemic / in life observation / body weight / body weight
[22] = systemic / pathology microscopic / liver / vacuolization cytoplasmic
[23] = systemic / pathology microscopic / liver / vacuolization cytoplasmic + systemic / in life observation / body weight / body weight
[24] = group: maternal, reproductive / reproductive performance / estrous cycle / corpora lutea
[25] = group: parental, systemic / organ weight / liver / absolute + systemic / organ weight / thyroid gland / absolute + systemic / pathology microscopic / ovary…
[26] = group: parental, systemic / organ weight / liver / absolute + systemic / pathology microscopic / ovary / follicle count + systemic / pathology microscopic / …
[27] = systemic / in life observation / body weight / body weight + systemic / organ weight / brain / relative to body weight + systemic / organ …
[28] = systemic / pathology microscopic / liver / granuloma + systemic / pathology microscopic / lymph node / granuloma + systemic / clinical …
[29] = systemic / pathology microscopic / liver / granuloma + systemic / pathology microscopic / lymph node / granuloma + systemic / hematology / …
[30] = systemic / in life observation / body weight / body weight + systemic / clinical chemistry / alpha-2 globulin / alpha-2 globulin + systemic…
[31] = systemic / pathology microscopic / stomach / hyperkeratosis + systemic / pathology microscopic / intestine small / carcinoma + systemic / …
[32] = systemic / pathology microscopic / stomach / hyperkeratosis + systemic / pathology microscopic / intestine small / hyperplasia + systemic / …
[33] = group: developmental, developmental / developmental malformation / bone / [other] + developmental / developmental malformation / bone / misshapen fontanel + …
[34] = group: maternal, reproductive / reproductive performance / aborted / aborted + reproductive / reproductive performance / resorptions / resorptions + systemic…
[35] = group: offspring, systemic / in life observation / body weight / offspring (pup) weight
[36] = group: parental, systemic / in life observation / body weight / body weight + systemic / in life observation / body weight / body weight gain + systemic / in…
[37] = group: reproductive, reproductive / reproductive performance / fertility / fertility
[38] = systemic / in life observation / clinical signs / emesis + systemic / organ weight / liver / absolute + systemic / organ weight / brain / …
[39] = group: developmental, developmental / developmental malformation / bone / domed head + developmental / developmental malformation / bone / misshapen fontanel + …
[40] = group: maternal, systemic / in life observation / food consumption / food consumption
[41] = systemic / pathology microscopic / stomach / hyperkeratosis
[42] = systemic / pathology microscopic / stomach / hyperkeratosis + systemic / in life observation / body weight / body weight gain + systemic / …
[43] = systemic / hematology / hematocrit (hct) / hematocrit (hct) + systemic / in life observation / clinical signs / weakness + systemic / …
[44] = group: developmental, developmental / developmental malformation / bone / unossified
[45] = group: developmental, developmental / developmental malformation / bone / unossified + developmental / developmental malformation / bone / delayed ossification + …
[46] = group: maternal, systemic / in life observation / body weight / body weight gain + systemic / in life observation / food consumption / food consumption + …
[47] = systemic / pathology microscopic / stomach / acanthosis + systemic / pathology microscopic / stomach / erosion + systemic / pathology …
[48] = systemic / pathology microscopic / testes / interstitial cell tumor nos + systemic / pathology microscopic / thyroid gland / adenoma/…
[49] = group: developmental, developmental / developmental malformation / bone / incomplete ossification + developmental / developmental malformation / bone / misaligned…
[50] = group: maternal, systemic / in life observation / body weight / body weight gain + systemic / in life observation / clinical signs / respiration (rales)
[51] = group: maternal, systemic / in life observation / body weight / body weight gain + systemic / in life observation / clinical signs / respiration (rales) + …

## C=CCN=C=S [Allyl isothiocyanate]
Rat [1]; [20]
  LOAEL: 25 mg/kg/day
Rat [1]; systemic / in life observation / body weight / body weight + systemic / pathology microscopic / blood / leukemia mononuclear + systemic / …
  NOAEL: 12 mg/kg/day
Rat [1]; [21]
  LEL: 12 mg/kg/day
  NEL: < 12 mg/kg/day
Mouse [2]; [22]
  LEL: 12 mg/kg/day
  NEL: < 12 mg/kg/day
Mouse [2]; [23]
  LOAEL: > 25 mg/kg/day
  NOAEL: ≥ 25 mg/kg/day

## CCCCOC(=O)c1ccc(O)cc1 [Butylparaben]
Rat [3]; [24]
  LEL: 62.5 mg/kg/day
  LOAEL: > 1000 mg/kg/day
  NEL: < 62.5 mg/kg/day
  NOAEL: ≥ 1000 mg/kg/day
Rat [3]; [25]
  LOAEL: > 1000 mg/kg/day
  NOAEL: ≥ 1000 mg/kg/day
Rat [3]; [26]
  LEL: 62.5 mg/kg/day
  NEL: < 62.5 mg/kg/day
Rat [4]
  LEL: 1000 mg/kg/day
  LOAEL: > 1000 mg/kg/day
  NEL: 100 mg/kg/day
  NOAEL: ≥ 1000 mg/kg/day

## CC(C)[C@@H](C(=O)O[C@@H](C#N)c1cccc(Oc2ccccc2)c1)c1ccc(Cl)cc1 [Fenvalerate]
Rat [5]; [20]
  LOAEL: 50 mg/kg/day
  NOAEL: < 50 mg/kg/day
Rat [5]; [27]
  LEL: 50 mg/kg/day
  NEL: < 50 mg/kg/day
Mouse [6]; [28]
  NEL: 4.5 mg/kg/day
  NOAEL: 4.5 mg/kg/day
Mouse [6]; [29]
  LEL: 15 mg/kg/day
  LOAEL: 15 mg/kg/day
Rat [7]; [20]
  LEL: 1.25 mg/kg/day
Rat [7]; systemic / in life observation / body weight / body weight + systemic / clinical chemistry / alpha-2 globulin / alpha-2 globulin
  NEL: 0.25 mg/kg/day
Rat [7]; [30]
  LOAEL: > 25 mg/kg/day
  NOAEL: ≥ 25 mg/kg/day
Dog [8]
  LEL: 6.25 mg/kg/day
  LOAEL: 6.25 mg/kg/day
  NEL: < 6.25 mg/kg/day
  NOAEL: < 6.25 mg/kg/day

## O=C1c2ccccc2C(=O)N1SC(Cl)(Cl)Cl [Folpet]
Mouse [9]; [31]
  LOAEL: 150 mg/kg/day
  NOAEL: < 150 mg/kg/day
Mouse [9]; [32]
  LEL: 150 mg/kg/day
  NEL: < 150 mg/kg/day
Rabbit [10]; [33]
  LEL: 60 mg/kg/day
  LOAEL: > 60 mg/kg/day
  NEL: < 60 mg/kg/day
  NOAEL: ≥ 60 mg/kg/day
Rabbit [10]; [34]
  LEL: 60 mg/kg/day
  LOAEL: > 60 mg/kg/day
  NEL: < 60 mg/kg/day
  NOAEL: ≥ 60 mg/kg/day
Rat [11]; [35]
  LEL: 180 mg/kg/day
  LOAEL: 180 mg/kg/day
  NEL: 40 mg/kg/day
  NOAEL: 40 mg/kg/day
Rat [11]; [36]
  LOAEL: 180 mg/kg/day
  NEL: 10 mg/kg/day
  NOAEL: 40 mg/kg/day
Rat [11]; group: parental, systemic / in life observation / food consumption / food consumption
  LEL: 40 mg/kg/day
Rat [11]; [37]
  LEL: 180 mg/kg/day
  LOAEL: 180 mg/kg/day
  NEL: 40 mg/kg/day
  NOAEL: 40 mg/kg/day
Dog [12]; systemic / in life observation / body weight / body weight gain + systemic / in life observation / body weight / body weight
  LOAEL: 60 mg/kg/day
Dog [12]; systemic / in life observation / body weight / body weight gain + systemic / in life observation / body weight / body weight + systemic / in…
  NOAEL: 20 mg/kg/day
Dog [12]; [38]
  LEL: 20 mg/kg/day
  NEL: < 20 mg/kg/day
Rabbit [13]; [39]
  LEL: 20 mg/kg/day
  LOAEL: 20 mg/kg/day
  NEL: 10 mg/kg/day
  NOAEL: 10 mg/kg/day
Rabbit [13]; [40]
  LEL: 20 mg/kg/day
  LOAEL: 20 mg/kg/day
  NEL: 10 mg/kg/day
  NOAEL: 10 mg/kg/day
Dog [14]
  LEL: 60 mg/kg/day
  LOAEL: 60 mg/kg/day
  NEL: 10 mg/kg/day
  NOAEL: 10 mg/kg/day
Rat [15]; [41]
  LEL: 81 mg/kg/day
  LOAEL: 81 mg/kg/day
Rat [15]; [42]
  NEL: 12 mg/kg/day
  NOAEL: 12 mg/kg/day
Mouse [16]; [43]
  LEL: 93 mg/kg/day
  NEL: < 93 mg/kg/day
Mouse [16]; systemic / pathology microscopic / intestine small / hyperplasia
  LOAEL: 1280 mg/kg/day
Mouse [16]; systemic / pathology microscopic / intestine small / hyperplasia + systemic / pathology microscopic / intestine small / adenocarcinoma + …
  NOAEL: 502 mg/kg/day
Rabbit [17]; [44]
  LEL: 40 mg/kg/day
  LOAEL: 40 mg/kg/day
Rabbit [17]; [45]
  NEL: 10 mg/kg/day
  NOAEL: 10 mg/kg/day
Rabbit [17]; group: maternal, systemic / in life observation / body weight / body weight gain + systemic / in life observation / food consumption / food consumption
  LOAEL: 160 mg/kg/day
Rabbit [17]; [46]
  LEL: 160 mg/kg/day
  NEL: 40 mg/kg/day
  NOAEL: 40 mg/kg/day
Rat [18]; [47]
  LOAEL: 35 mg/kg/day
  NOAEL: 9 mg/kg/day
Rat [18]; [48]
  LEL: 9 mg/kg/day
  NEL: < 9 mg/kg/day
Rat [19]; [49]
  LEL: 360 mg/kg/day
  LOAEL: 360 mg/kg/day
  NEL: 60 mg/kg/day
  NOAEL: 60 mg/kg/day
Rat [19]; [50]
  LEL: 60 mg/kg/day
  LOAEL: 60 mg/kg/day
Rat [19]; [51]
  NEL: 10 mg/kg/day
  NOAEL: 10 mg/kg/day
